Entries after “also recorded” stand apart in the source; their conditions may differ.
Tests used:
[1] = test system: ESR1 mutations p.Leu536Gln, p.Tyr537Ser, p.Asp538Gly, p.Tyr537Cys, p.Tyr537Asn; test: ERE-luciferase reporter assay, ESR1 LBD mutants; format: cell-based, human; details: for inhibition of the 5 LBD mutations of ESR1 (reporter activity): ERE-luciferase, increasing doses with 5 nM β-estradiol for 24 hrs (FIG. 4)
Protocol: (§1) cDNA for the wild type ESR1 was PCR amplified from a breast cell line MCF7 with the introduction of an N-terminal FLAG tag. cDNA encoding the relevant mutations of ESR1 were generated by site-directed mutagenesis (QuikChange, Agilent) and full-length constructs were fully sequenced. All the ESR1 variants were placed in the Lentivial vector pCDH (System Biosciences) for eukaryotic expression.
(§2) For cell transfection experiments, HEK-293T cells were plated at a density of 1−2×10^5 per well (24-well plates) in phenol red-free Dulbecco's modified Eagle's medium (DMEM) containing 10% fetal bovine serum (FBS) and antibiotics. Once cells attached, replaced medium with DMEM containing 10% charcoal-dextran treated FBS (HyClone) and cultured overnight. The next day, cells were transiently co-transfected with ESR1-expression plasmid at 50 ng/well and luciferase reporter constructs at 25 ng per well (SABiosciences) using the FuGene 6 reagent (Promega). The ER-responsive luciferase plasmid encoding the firefly luciferase reporter gene is driven by a minimal CMV promoter and tandem repeats of the estrogen transcriptional response element (ERE). A second plasmid constitutively expressing Renilla luciferase is served as an internal control for normalizing transfection efficiencies (Cignal ERE Reporter, SABiosciences). After transfection for 18 hrs, cells were serum-starved for a few hours before treatment with 13-estradiol or anti-estrogen drugs. Cells were harvested 18 hr post-treatment, and luciferase activity was measured using the Dual-Luciferase Reporter Assay System (Promega). IC50 values were computed using the GraphPad Prizm application to fit a four parameter doseresponse curve.
It was next assessed whether tumor types other than ER positive metastatic hormone-resistant breast cancer also acquire ligand binding mutations in ESR1. The Cancer Genome Atlas Project (TCGA), which has generated whole exome data on 27 tumor types across at least 4000 individual samples was utilized. […] Steroid hormone deprived cells were then exposed to β-estradiol for 24 hours and ER reporter levels assessed.

[2] = biological target: T1, wild type ESR1 (Homo sapiens, UniProt P03372); test: ERE-luciferase reporter assay, wild type ESR1; format: cell-based; details: HEK-293T cells co-transfected with ESR1 plasmid 50 ng and ERE-luciferase; in presence of β-estradiol (FIGS. 4, 8, 9, 10)
T1 construct: expressed in transfected cells; host or cells: HEK-293T
T1 sequence (P03372 1-595): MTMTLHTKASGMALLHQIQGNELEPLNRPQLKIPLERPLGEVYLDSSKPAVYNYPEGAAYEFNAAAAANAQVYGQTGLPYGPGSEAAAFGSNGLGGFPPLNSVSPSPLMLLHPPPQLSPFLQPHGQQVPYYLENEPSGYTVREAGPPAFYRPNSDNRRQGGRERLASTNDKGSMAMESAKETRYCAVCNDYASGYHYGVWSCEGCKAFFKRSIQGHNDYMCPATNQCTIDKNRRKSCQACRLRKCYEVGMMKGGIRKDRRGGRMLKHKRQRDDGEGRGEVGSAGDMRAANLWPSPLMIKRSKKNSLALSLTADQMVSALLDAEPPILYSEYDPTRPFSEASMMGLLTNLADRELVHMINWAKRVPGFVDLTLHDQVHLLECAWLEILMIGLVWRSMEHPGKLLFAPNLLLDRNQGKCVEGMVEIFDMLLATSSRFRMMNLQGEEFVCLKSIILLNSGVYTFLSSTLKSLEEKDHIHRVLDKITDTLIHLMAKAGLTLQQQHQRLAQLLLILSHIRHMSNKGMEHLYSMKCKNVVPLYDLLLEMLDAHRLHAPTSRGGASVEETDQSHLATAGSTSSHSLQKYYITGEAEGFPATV
Excerpt: as §1
as §2, with “Once” for “For cell transfection experiments, HEK-293T cells were plated at a density of 1−2×10^5 per well (24-well plates) in phenol red-free Dulbecco's modified Eagle's medium (DMEM) containing 10% fetal bovine serum (FBS) and antibiotics. Once”, “IC50 values were computed using the GraphPad Prizm application to fit a four parameter doseresponse curve.” left out

| Molecule | maximal inhibition for all the mutants tested ([1]; ERE-luciferase dose response in competition with 1 nM estradiol (FIGS. 8 and 9)) | inhibition of the 5 LBD mutations of ESR1 (reporter activity) [1] | inhibition of wild-type ER reporter (transactivation) activity [2] |
| --- | --- | --- | --- |
| C[C@]12CC[C@@H]3c4ccc(O)cc4C[C@@H](CCCCCCCCC[S+]([O-])CCCC(F)(F)C(F)(F)F)[C@H]3[C@@H]1CC[C@@H]2O (stereo partly shown) [fulvestrant, Fulvestrant] | greater maximal inhibition than 4-hydroxytamoxifen | in a dose-dependent fashion; also recorded: continue to be responsive | – |
| CC/C(=C(\c1ccccc1)c1ccc(OCCN(C)C)cc1)c1ccccc1 [tamoxifen] | – | in a dose-dependent fashion; also recorded: continue to be responsive | – |
| (Z)-4-Hydroxytamoxifen | – | – | inhibited in a dose-dependent fashion |

Reference: US11697852B2, “Systems and methods for determining a treatment course of action” (The Regents of the University of Michigan, priority 2013, dated 2023)
